# From patent publication US20210236476A1, “METHODS OF TREATING CANCER WITH SMALL MOLECULE PD-L1 INHIBITORS” (CHEMOCENTRYX, INC., priority 2018, published 2021)
# Target: T1, human PD-L1 / human PD-1 interaction (Homo sapiens, UniProt Q9NZQ7)
# T1 construct: purchased R&D (PD-L1); ACRO Biosystems (PD-1, biotin)
# Assay: ELISA of PD-1/PD-L1 interaction
# Type: binding
# Procedure, shortened: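 Plates coated with 1 μg/mL human PD-L1 and blocked with BSA; serially diluted (1:5) compounds plus biotinylated human PD-1 (0.3 μg/mL) incubated 1 h at 37° C. Bound PD-1 detected with streptavidin-HRP/TMB, absorbance at 450 nm.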
# T1 sequence (Q9NZQ7 19-239 limits assumed): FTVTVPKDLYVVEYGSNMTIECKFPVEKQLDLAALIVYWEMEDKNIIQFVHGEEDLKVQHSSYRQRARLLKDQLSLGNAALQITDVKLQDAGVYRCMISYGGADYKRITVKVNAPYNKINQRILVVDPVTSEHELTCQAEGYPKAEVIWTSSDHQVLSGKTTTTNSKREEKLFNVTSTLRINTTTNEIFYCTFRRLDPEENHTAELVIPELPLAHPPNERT
row,SMILES,IC50 [nM]
1,Cc1c(OCCCN2CCC(O)CC2)cccc1-c1cccc2c1CCC2Oc1cc(OCc2cncc(C#N)c2)c(CN[C@H](C(=O)O)[C@@H](C)O)cc1Cl (some centres unmarked),< 5
2,Cc1c(OCCCN2CC[C@@H](O)[C@H](F)C2)cccc1-c1cccc2c1CC[C@@H]2Oc1cc(OCc2cncc(C#N)c2)c(CN[C@H](C(=O)O)[C@@H](C)O)cc1Cl,5 to 500
3,Cc1c(OCCCN2CC[C@H](O)[C@H](F)C2)cccc1-c1cccc2c1CC[C@@H]2Oc1cc(OCc2cncc(C#N)c2)c(CN[C@H](C(=O)O)[C@@H](C)O)cc1Cl,< 5
4,Cc1c(OCCCN2CCC[C@H]2CO)cccc1-c1cccc2c1CC[C@@H]2Oc1cc(OCc2cncc(C#N)c2)c(CN[C@H](C(=O)O)[C@@H](C)O)cc1Cl,< 5
5,Cc1c(OCCCN[C@@H]2CCCC[C@@H]2O)cccc1-c1cccc2c1CC[C@@H]2Oc1cc(OCc2cncc(C#N)c2)c(CN[C@H](C(=O)O)[C@@H](C)O)cc1Cl,< 5
6,CCN1CCC(COc2cccc(-c3cccc4c3CC[C@@H]4Oc3cc(OCc4cncc(C#N)c4)c(CNC[C@@H]4CCC(=O)N4)cc3Cl)c2Cl)C1 (some centres unmarked),< 5
7,CC(C)N1CCC(COc2cccc(-c3cccc4c3CC[C@@H]4Oc3cc(OCc4cncc(C#N)c4)c(CNC[C@@H]4CCC(=O)N4)cc3Cl)c2Cl)C1 (some centres unmarked),< 5
8,CC(C)N1CCC(COc2cccc(-c3cccc4c3CC[C@@H]4Oc3cc(OCc4cncc(C#N)c4)c(CN[C@H]4CCC(=O)NC4)cc3Cl)c2Cl)C1 (some centres unmarked),< 5
9,Cc1c(OCCCN2CCCC2(C)C)cccc1-c1cccc2c1CC[C@@H]2Oc1cc(OCc2cc(C#N)cc(C#N)c2)c(CN[C@H]2CCC(=O)NC2)cc1Cl,< 5
10,CCN1CCC(COc2cccc(-c3cccc4c3CC[C@@H]4Oc3cc(OCc4cncc(C#N)c4)c(CN[C@H]4CCC(=O)NC4)cc3Cl)c2Cl)C1 (some centres unmarked),< 5
11,Cc1c(OCCCN2C(C)CC2C)cccc1-c1cccc2c1CC[C@@H]2Oc1cc(OCc2cc(C#N)cc(C#N)c2)c(CN[C@H]2CCC(=O)NC2)cc1Cl (some centres unmarked),< 5
12,Cc1c(OCCCN2CCC2(C)C)cccc1-c1cccc2c1CC[C@@H]2Oc1cc(OCc2cc(C#N)cc(C#N)c2)c(CN[C@H]2CCC(=O)NC2)cc1Cl,< 5
13,N#Cc1cncc(COc2cc(O[C@H]3CCc4c(-c5cccc(OCCCN6CCC(F)CC6)c5Cl)cccc43)c(Cl)cc2CN2CC(C(=O)O)C2)c1,< 5
14,CCOc1cc(O[C@H]2CCc3c(-c4cccc(OCCCN5CCC5(C)C)c4C)cccc32)c(Cl)cc1CNC[C@@H]1CCC(=O)N1,< 5
15,CCOc1cc(O[C@H]2CCc3c(-c4cccc(OCCCN5[C@H](C)CC[C@H]5C)c4C)cccc32)c(Cl)cc1CNC[C@@H]1CCC(=O)N1,< 5
16,CCOc1cc(O[C@H]2CCc3c(-c4cccc(OCCCN5CCC[C@@H]5C(C)C)c4C)cccc32)c(Cl)cc1CNC[C@@H]1CCC(=O)N1,< 5
17,CCOc1cc(O[C@H]2CCc3c(-c4cccc(OCCCN(C)C(C)(C)C)c4C)cccc32)c(Cl)cc1CNC[C@@H]1CCC(=O)N1,< 5
18,CCOc1cc(O[C@H]2CCc3c(-c4cccc(OCCCN(C)C(C)C)c4C)cccc32)c(Cl)cc1CNC[C@@H]1CCC(=O)N1,< 5
19,CCOc1cc(O[C@H]2CCc3c(-c4cccc(OCCCN5CCCC5(C)C)c4C)cccc32)c(Cl)cc1CNC[C@@H]1CCC(=O)N1,< 5
20,CCOc1cc(O[C@H]2CCc3c(-c4cccc(OCCCN5C(C)CC5(C)C)c4C)cccc32)c(Cl)cc1CNC[C@@H]1CCC(=O)N1 (some centres unmarked),< 5
21,CCOc1cc(O[C@H]2CCc3c(-c4cccc(OCCCN5CCC5(C)C)c4C)cccc32)c(Cl)cc1CNCCO,< 5
22,CCOc1cc(O[C@H]2CCc3c(-c4cccc(OCCCN5C(C)CC5C)c4C)cccc32)c(Cl)cc1CNC[C@@H]1CCC(=O)N1 (some centres unmarked),< 5
23,CCOc1cc(O[C@H]2CCc3c(-c4cccc(OCCCN5CCC5(C)C)c4C)cccc32)c(Cl)cc1CN(C)CC(=O)O,5 to 500
24,CCOc1cc(O[C@H]2CCc3c(-c4cccc(OCCCN5[C@H](C)CC[C@H]5C)c4C)cccc32)c(Cl)cc1CN1CCCC[C@H]1C(=O)O,5 to 500
25,Cc1c(OCCCN2CCC(O)CC2)cccc1-c1cccc2c1CC[C@@H]2Oc1cc(OCc2cncc(C#N)c2)c(CN(C)[C@H](C(=O)O)[C@@H](C)O)cc1Cl,< 5
26,CN(Cc1cc(Cl)c(O[C@H]2CCc3c(-c4cccc(OCCCN5CC(O)C5)c4Cl)cccc32)cc1OCc1cncc(C#N)c1)[C@@](C)(CO)C(=O)O,< 5
27,Cc1c(OCCCN2CCC(F)CC2)cccc1-c1cccc2c1CC[C@@H]2Oc1cc(OCc2cncc(C(N)=O)c2)c(CN(C)CCC(=O)O)cc1Cl,< 5
28,CCOc1cc(O[C@H]2CCc3c(-c4cccc(OCCCN5CCC5(C)C)c4C)cccc32)c(Cl)cc1CNCCC(=O)OC(C)C,5 to 500

# Continued, values first:
row,IC50 [nM],SMILES
1,< 5,Cc1c(OCCCN2CCC(O)CC2)cccc1-c1cccc2c1CC[C@@H]2Oc1cc(OCc2cc(C#N)cc(C#N)c2)c(CN[C@@H](CO)C(=O)O)cc1Cl
2,< 5,Cc1c(OCCCN2CCC(O)CC2)cccc1-c1cccc2c1CC[C@@H]2Oc1cc(OCc2cc(C#N)cc(C#N)c2)c(CN[C@H](C(=O)O)[C@@H](C)O)cc1Cl
3,< 5,Cc1c(OCCCN2CCC(O)CC2)cccc1-c1cccc2c1CC[C@@H]2Oc1cc(OCc2cc(C#N)cc(C#N)c2)c(CN[C@@H]2CCCC[C@@H]2O)cc1Cl
4,< 5,Cc1c(OCCCN2CCC(F)CC2)cccc1-c1cccc2c1CC[C@@H]2Oc1cc(OCc2cc(C#N)cc(C#N)c2)c(CNCC(=O)NS(C)(=O)=O)cc1Cl
5,5 to 500,Cc1c(OCCCN2CCC(C)(F)CC2)cccc1-c1cccc2c1CC[C@@H]2Oc1cc(OCc2cc(C#N)cc(C#N)c2)c(CN[C@@H]2CCC[C@H]2O)cc1Cl
6,5 to 500,Cc1c(OCCCN2CCC(C)CC2)cccc1-c1cccc2c1CC[C@@H]2Oc1cc(OCc2cc(C#N)cc(C#N)c2)c(CN[C@H]2CCC(=O)NC2)cc1Cl
7,5 to 500,Cc1c(OCCCN2[C@H](C)CCC[C@@H]2C)cccc1-c1cccc2c1CC[C@@H]2Oc1cc(OCc2cc(C#N)cc(C#N)c2)c(CN[C@H]2CCC(=O)NC2)cc1Cl
8,< 5,Cc1c(OCCCN2C(C)CCC2C)cccc1-c1cccc2c1CC[C@@H]2Oc1cc(OCc2cc(C#N)cc(C#N)c2)c(CN[C@H]2CCC(=O)NC2)cc1Cl (some centres unmarked)
9,5 to 500,Cc1c(OCCCN2CCCC2C(C)C)cccc1-c1cccc2c1CC[C@@H]2Oc1cc(OCc2cc(C#N)cc(C#N)c2)c(CN[C@H]2CCC(=O)NC2)cc1Cl (some centres unmarked)
10,< 5,Cc1c(OCCCN2CCCC[C@@H]2C)cccc1-c1cccc2c1CC[C@@H]2Oc1cc(OCc2cc(C#N)cc(C#N)c2)c(CN[C@H]2CCC(=O)NC2)cc1Cl
11,< 5,Cc1c(OCCCN2CCC(F)CC2)cccc1-c1cccc2c1CC[C@@H]2Oc1cc(OCc2cc(C#N)cc(C#N)c2)c(CNC2CCNC(=O)C2)cc1Cl (some centres unmarked)
12,< 5,Cc1c(OCCCN2[C@H](C)CC[C@@H]2C)cccc1-c1cccc2c1CC[C@@H]2Oc1cc(OCc2cc(C#N)cc(C#N)c2)c(CN[C@H]2CCC(=O)NC2)cc1Cl
13,< 5,Cc1c(OCCCN2[C@H](C)CC[C@H]2C)cccc1-c1cccc2c1CC[C@@H]2Oc1cc(OCc2cc(C#N)cc(C#N)c2)c(CN[C@H]2CCC(=O)NC2)cc1Cl
14,< 5,Cc1c(OCCCN2[C@@H](C)CC[C@@H]2C)cccc1-c1cccc2c1CC[C@@H]2Oc1cc(OCc2cc(C#N)cc(C#N)c2)c(CN[C@H]2CCC(=O)NC2)cc1Cl
15,< 5,Cc1c(OCCCN2CC(C)(C)C2)cccc1-c1cccc2c1CC[C@@H]2Oc1cc(OCc2cc(C#N)cc(C#N)c2)c(CN[C@H]2CCC(=O)NC2)cc1Cl
16,5 to 500,Cc1c(OCCCN2CC[C@H](F)C[C@@H]2C)cccc1-c1cccc2c1CC[C@@H]2Oc1cc(OCc2cc(C#N)cc(C#N)c2)c(CN[C@H]2CCC(=O)NC2)cc1Cl
